The text below walks through data of patent US8193164B2, “Organic compounds” (Novartis AG, priority 2006, dated 2012).

The target in this test is adenosine A2A receptor (Homo sapiens, UniProt P29274). As to the kind of experiment: adenosine A2A receptor agonist assay (method of Murphree et al, Molecular Pharmacology 61, 455-462 (2002)). Format: binding. The note with it: method described by L. J. Murphree et al, Mol. Pharmacol. 61, 455-462 (2002). From the text: Compounds of formulae (I) and (II) and their pharmaceutically acceptable salts are useful as pharmaceuticals. In particular, they activate the adenosine A2A receptor, i.e. they act as A2A receptor agonists.
Chain of adenosine A2A receptor (P29274 whole entry): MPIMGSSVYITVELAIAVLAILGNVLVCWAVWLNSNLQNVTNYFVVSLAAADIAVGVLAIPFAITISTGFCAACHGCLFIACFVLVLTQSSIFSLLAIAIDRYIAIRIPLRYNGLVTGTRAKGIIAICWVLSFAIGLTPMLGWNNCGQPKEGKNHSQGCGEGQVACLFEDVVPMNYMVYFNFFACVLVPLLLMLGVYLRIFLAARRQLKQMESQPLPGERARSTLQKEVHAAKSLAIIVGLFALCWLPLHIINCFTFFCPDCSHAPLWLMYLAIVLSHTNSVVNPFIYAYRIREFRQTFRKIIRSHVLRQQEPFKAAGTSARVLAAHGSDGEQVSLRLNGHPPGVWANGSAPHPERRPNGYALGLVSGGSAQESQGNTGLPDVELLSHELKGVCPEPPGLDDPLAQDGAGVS
The term Ki denotes a measure of affinity in units of concentration, obtained from inhibition or displacement. A lower Ki goes with a stronger hold on the target. The molecule `CCC(=O)N[C@H]1C[C@@H](n2cnc3c(NC(CO)Cc4ccccc4)nc(N4CC[C@@H](NC(=O)N[C@H]5CCN(c6nc(NC(CO)Cc7ccccc7)c7ncn([C@@H]8C[C@H](NC(=O)CC)[C@@H](O)[C@H]8O)c7n6)C5)C4)nc32)[C@H](O)[C@@H]1O` (stereo in doubt) [Example 7] returned an inhibitory constant (Ki) of 10 nM. In the case of `CCC(=O)N[C@H]1C[C@@H](n2cnc3c(NCC(c4ccccc4)c4ccccc4)nc(N4CC[C@@H](NC(=O)NC5CCC(NC(=O)N[C@H]6CCN(c7nc(NCC(c8ccccc8)c8ccccc8)c8ncn([C@@H]9C[C@H](NC(=O)CC)[C@@H](O)[C@H]9O)c8n7)C6)CC5)C4)nc32)[C@H](O)[C@@H]1O` (stereo in doubt) [Example 15] it was 70 nM; in that of `CCC(=O)N[C@H]1C[C@@H](n2cnc3c(NCC(c4ccccc4)c4ccccc4)nc(N4CC[C@@H](NC(=O)N[C@@H]5CCN(c6nc(NCC(c7ccccc7)c7ccccc7)c7ncn([C@@H]8C[C@H](NC(=O)CC)[C@@H](O)[C@H]8O)c7n6)C5)C4)nc32)[C@H](O)[C@@H]1O` [Example 1], 10 nM; in that of `CCC(=O)N[C@H]1C[C@@H](n2cnc3c(NCC(c4ccccc4)c4ccccc4)nc(N4CC[C@@H](NC(=O)NS(=O)(=O)N[C@@H]5CCN(c6nc(NCC(c7ccccc7)c7ccccc7)c7ncn([C@@H]8C[C@H](NC(=O)CC)[C@@H](O)[C@H]8O)c7n6)C5)C4)nc32)[C@H](O)[C@@H]1O` [Example 19], 60 nM.
